Data from patent US6794416B2, “Methods, compositions and modes of delivery for the treatment of emphysema using 13-cis-retinoic acid” (Syntex (U.S.A.) LLC, priority 2000, dated 2004).
Where two headings read alike, the source gives them in different places. Marks after values point to notes of the source that are not given here.

How the values were obtained:
[1] = tested on: rat model of elastase-induced emphysema; experiment: alveolar repair in the rat model of elastase-induced emphysema; assay type: in vivo, male Sprague Dawley rats; conditions: for % Alveolar Repair: starting 21 days post elastase injury, relative to elastase + vehicle
Procedure: All-trans retinoic acid (ATRA) and 13-cis-retinoic acid were evaluated for their effects on alveolar repair in the rat model of elastase-induced emphysema (Massaro et al., Nature, 1997, Vol. 3, No. 6:675; Massaro et al., U.S. Pat. No. 5,998,486). Animals were divided into treatment groups of approximately eight. Lung inflammation and alveolar damage was induced in male Sprague Dawley rats by a single instillation of about 2 U/gram body mass of pancreatic elastase (porcine derived, Calbiochem).
(§1) Animals treated with ATRA and 13-cis-retinoic acid prepared in Capmul at the dosage ranges enumerated in Table 6 were dosed orally once per day starting 21 days post injury. Control groups were challenged with elastase and 21 days later were treated with vehicle (Capmul solution) for 14 days. Animals were sacrificed 24 hours after the last dose by exsanguination under deep anesthesia. Blood was collected at time of exsanguination for analysis.
The lungs were inflated with 10% neutral buffered formalin by intratracheal instillation at a constant rate (1 ml/gram body mass/min). The lung was excised and immersed in fixative for 24 hours prior to processing. Alveolar measurements were made in four regions of the lung/rat. The mean value/treatment group was determined by summing the average area/rat for all eight rats relative to the elastase+ vehicle treated group. […] Standard methods were used to prepare 5 μm paraffin sections. Sections were stained with Hematoxylin and Eosin. Computerized Morphometric analysis was performed to determine the average alveolar size and alveolar number.

[2] = design: species or system male Sprague Dawley rats; conditions: rat, in vivo, po
Procedure: as §1
Quantitation of triglycerides contained in rat plasma was performed using established procedures in a contact clinical laboratory facility. Briefly, plasma triglycerides were converted to dihdroxyacetone and hydrogen peroxide by sequential treatment of plasma with lipase and glycerokinase according directions described by the manufacturer of triglycerides/GPO kit (Boehringer Mannheim #1488872). Hydrogen peroxide was quantitated colorimetrically in a Hitachi 911 Chemistry Analyzer. In rats normal triglyceride levels are between about 75 mg/dl and about 175 mg/dl.
Triglyceride values are a convenient measure of toxicity. […] Furthermore, at every dosage level tested, the triglyceride levels observed with 13-cis-retinoic acid were lower than that observed for ATRA.

[3] = oral dose 0.1 mg/kg once per day
[4] = oral dose 1.0 mg/kg once per day
[5] = oral dose 10.0 mg/kg once per day

| Compound | statistical significance of alveolar repair relative to elastase treated control ([1]; dosage of 0.001 mg/kg) | statistical significance of alveolar repair relative to elastase treated control ([1]; dosage range from 10.0 mg/kg to as low as 0.01 mg/kg) | % Alveolar Repair ([1]; oral dose 0.001 mg/kg once per day) | % Alveolar Repair ([1]; oral dose 0.01 mg/kg once per day) [%] | % Alveolar Repair [1, 3] | % Alveolar Repair [1, 4] [%] | % Alveolar Repair [1, 5] [%] | Triglyceride ([2]; 0.001 mg/kg) [mg/dL] | Triglyceride ([2]; 0.01 mg/kg) [mg/dL] | Triglyceride ([2]; 0.1 mg/kg) [mg/dL] | Triglyceride ([2]; 1 mg/kg) [mg/dL] | Triglyceride ([2]; 10 mg/kg) [mg/dL] | statistical significance of alveolar repair relative to elastase treated control ([1]; dosages below 0.3 mg/kg) | % Alveolar Repair ([1]; oral dose 0.3 mg/kg once per day) | % Alveolar Repair ([1]; oral dose 3.0 mg/kg once per day) [%] | Triglyceride ([2]; 0.3 mg/kg) [mg/dL] | Triglyceride ([2]; 3 mg/kg) [mg/dL] |
| --- | --- | --- | --- | --- | --- | --- | --- | --- | --- | --- | --- | --- | --- | --- | --- | --- | --- |
| CC1=C(/C=C/C(C)=C/C=C/C(C)=C\C(=O)O)C(C)(C)CCC1 [13-cis-retinoic acid, (13Z)-retinoic acid] | statistically insignificant | statistically significant | 12* % | 38 | 30% | 45 | 56 | 125 | 73 | 82 | 128 | 147 |  |  |  |  |  |
| CC1=C(/C=C/C(C)=C/C=C/C(C)=C/C(=O)O)C(C)(C)CCC1 [ATRA, All-trans retinoic acid] |  |  |  |  | 8.8* % | 45 | 53 |  |  | 152 | 175 | 378 | not statistically significant | 30* % | 47 | 149 | 307 |
